In ChEMBL document CHEMBL4002627, “Quinolidene based monocarbonyl curcumin analogues as promising antimycobacterial agents: Synthesis and molecular docking study” (Bioorg Med Chem Lett, 2017):
Values after ≈ are worked out from the molar mass of the structure shown.

What was measured:
[1] = (§1) Cytotoxicity against human MCF7 cells assessed as growth inhibition after 48 hrs by MTT assay; assay type: cell-based; conditions: MCF7 cells
MCF7 = experiment: as §1; assay type: cell-based; conditions: mcf7, 48 h
[2] = (§2) Cytotoxicity against human HCT116 cells assessed as growth inhibition after 48 hrs by MTT assay; assay type: cell-based, HCT-116; conditions: HCT116 cells
HCT-116 = experiment: as §2; assay type: cell-based; conditions: hct-116, 48 h
[3] = (§3) Cytotoxicity against human A549 cells assessed as growth inhibition after 48 hrs by MTT assay; assay type: cell-based; conditions: A549 cells
A549 = experiment: as §3; assay type: cell-based; conditions: a549, 48 h
[4] = Selectivity index, ratio of GI90 for human MCF7 cells to MIC90 for dormant state of Mycobacterium tuberculosis H37Ra; assay type: toxicity; conditions: read-out: Selectivity Index
[5] = system: Mycobacterium tuberculosis; experiment: Antimycobacterial activity against dormant state of Mycobacterium tuberculosis H37Ra by two fold dilution method; assay type: functional
[6] = Selectivity index, ratio of GI90 for human MCF7 cells to MIC90 for dormant state of dormant state of Mycobacterium bovis BCG; assay type: toxicity; conditions: read-out: Selectivity Index
[7] = Selectivity index, ratio of GI90 for human HCT116 cells to MIC90 for dormant state of Mycobacterium tuberculosis H37Ra; assay type: toxicity; conditions: read-out: Selectivity Index
[8] = Selectivity index, ratio of GI90 for human A549 cells to MIC90 for dormant state of Mycobacterium tuberculosis H37Ra; assay type: toxicity; conditions: read-out: Selectivity Index
[9] = Selectivity index, ratio of GI90 for human HCT116 cells to MIC90 for dormant state of dormant state of Mycobacterium bovis BCG; assay type: toxicity; conditions: read-out: Selectivity Index
[10] = Selectivity index, ratio of GI90 for human A549 cells to MIC90 for dormant state of dormant state of Mycobacterium bovis BCG; assay type: toxicity; conditions: read-out: Selectivity Index
[11] = system: Mycobacterium tuberculosis; experiment: Antimycobacterial activity against dormant state of Mycobacterium tuberculosis H37Ra assessed as growth inhibition at 30 ug/ml after 12 days by XTT reduction menadione assay relative to control; assay type: functional; conditions: 288 h, read-out: GI
[12] = Cytotoxicity against human MCF7 cells assessed as growth inhibition at 3 ug/ml after 48 hrs by MTT assay relative to control; assay type: cell-based; conditions: read-out: GI
Pseudomonas fluorescens = experiment: Antibacterial activity against Pseudomonas fluorescens ATCC 13525 after 8 hrs; assay type: functional; conditions: ATCC 13525, 8 h
[13] = system: Mycobacterium tuberculosis; experiment: Antimycobacterial activity against dormant state of Mycobacterium tuberculosis H37Ra assessed as growth inhibition at 10 ug/ml after 12 days by XTT reduction menadione assay relative to control; assay type: functional; conditions: 288 h, read-out: GI
[14] = Cytotoxicity against human A549 cells assessed as growth inhibition at 10 ug/ml after 48 hrs by MTT assay relative to control; assay type: cell-based; conditions: read-out: GI
[15] = Cytotoxicity against human MCF7 cells assessed as growth inhibition at 30 ug/ml after 48 hrs by MTT assay relative to control; assay type: cell-based; conditions: read-out: GI
Bacillus subtilis = experiment: Antibacterial activity against Bacillus subtilis ATCC 23857 after 12 hrs; assay type: functional; conditions: ATCC 23857, 12 h
[16] = Cytotoxicity against human MCF7 cells assessed as growth inhibition at 10 ug/ml after 48 hrs by MTT assay relative to control; assay type: cell-based; conditions: read-out: GI
[17] = Cytotoxicity against human A549 cells assessed as growth inhibition at 30 ug/ml after 48 hrs by MTT assay relative to control; assay type: cell-based; conditions: read-out: GI
Staphylococcus aureus = experiment: Antibacterial activity against Staphylococcus aureus ATCC 29213 after 12 hrs; assay type: functional; conditions: ATCC 29213, 12 h
Escherichia coli = experiment: Antibacterial activity against Escherichia coli ATCC […] after 8 hrs; assay type: functional
[18] = Cytotoxicity against human HCT116 cells assessed as growth inhibition at 3 ug/ml after 48 hrs by MTT assay relative to control; assay type: cell-based, HCT-116; conditions: read-out: GI
[19] = Cytotoxicity against human HCT116 cells assessed as growth inhibition at 10 ug/ml after 48 hrs by MTT assay relative to control; assay type: cell-based, HCT-116; conditions: read-out: GI
[20] = system: Mycobacterium tuberculosis; experiment: Antimycobacterial activity against dormant state of Mycobacterium tuberculosis H37Ra assessed as growth inhibition at 3 ug/ml after 12 days by XTT reduction menadione assay relative to control; assay type: functional; conditions: 288 h, read-out: GI
[21] = Cytotoxicity against human HCT116 cells assessed as growth inhibition at 30 ug/ml after 48 hrs by MTT assay relative to control; assay type: cell-based, HCT-116; conditions: read-out: GI
[22] = Cytotoxicity against human A549 cells assessed as growth inhibition at 3 ug/ml after 48 hrs by MTT assay relative to control; assay type: cell-based; conditions: read-out: GI

Compound	GI50 at 48 h [1] [µg/mL]	GI90 (MCF7) [µg/mL]	GI50 at 48 h [2] [µg/mL]	GI90 (HCT-116) [µg/mL]	GI50 at 48 h [3] [µg/mL]	GI90 (A549) [µg/mL]	selectivity ratio [4]	MIC50 [5] [µg/mL]	MIC90 [5] [µg/mL]	selectivity ratio [6]	selectivity ratio [7]	selectivity ratio [8]	selectivity ratio [9]	selectivity ratio [10]	inhibition of growth at 30 µg/mL [11] [%]	inhibition at 48 h, 3 ug/ml [12] [%]	MIC50 (Pseudomonas fluorescens) [µg/mL]	MIC90 (Pseudomonas fluorescens) [µg/mL]	inhibition of growth at 10 µg/mL [13] [%]	inhibition at 48 h, 10 ug/ml [14] [%]	other results
CO[C@H]1/C=C/O[C@@]2(C)Oc3c(C)c(O)c4c(O)c(c(/C=N/N5CCN(C)CC5)c(O)c4c3C2=O)NC(=O)/C(C)=C\C=C\[C@H](C)[C@H](O)[C@@H](C)[C@@H](O)[C@@H](C)[C@H](OC(C)=O)[C@@H]1C [RIFAMPIN]	> 100	> 100	> 100	> 100	> 100	> 100	> 133	0.0019 (≈ 0.00231 µM)	0.02 (≈ 0.0243 µM)	> 123	> 133	> 133	> 123	> 123							
O=C1/C(=C/c2cc3cc(F)ccc3nc2Cl)CNC/C1=C\c1cc2cc(F)ccc2nc1Cl	> 100	> 100	27.6 (≈ 57.1 µM)	> 100	> 100	> 100	> 3	13.7 (≈ 28.4 µM)	> 30	> 10	> 3	> 3	> 10	> 10	76.9	40.9	> 30	> 30	49	0	inhibition at 48 h, 30 ug/ml [15]: 48.5%; MIC50 (Bacillus subtilis): > 30 µg/mL; MIC90 (Bacillus subtilis): > 30 µg/mL; inhibition at 48 h, 10 ug/ml [16]: 41.1%; inhibition at 48 h, 30 ug/ml [17]: 0%; MIC50 (Staphylococcus aureus): > 30 µg/mL; MIC90 (Staphylococcus aureus): > 30 µg/mL; MIC50 (Escherichia coli): > 30 µg/mL; MIC90 (Escherichia coli): > 30 µg/mL; inhibition at 48 h, 3 ug/ml [18]: 35%; inhibition at 48 h, 10 ug/ml [19]: 45.3%; inhibition of growth at 3 µg/mL [20]: 41.1%; inhibition at 48 h, 30 ug/ml [21]: 55.8%; inhibition at 48 h, 3 ug/ml [22]: -5.8%
CN1C/C(=C\c2cc3ccccc3nc2Cl)C(=O)/C(=C/c2cc3ccccc3nc2Cl)C1	> 100	> 100	> 100	> 100	> 100	> 100	> 3	6.7 (≈ 14.6 µM)	26.5 (≈ 57.6 µM)	> 13	> 3	> 3	> 13	> 13	98	11.4	> 30	> 30	51.9	0	inhibition at 48 h, 30 ug/ml [15]: 35.1%; MIC50 (Bacillus subtilis): > 30 µg/mL; MIC90 (Bacillus subtilis): > 30 µg/mL; inhibition at 48 h, 10 ug/ml [16]: 24.3%; inhibition at 48 h, 30 ug/ml [17]: -16.9%; MIC50 (Staphylococcus aureus): > 30 µg/mL; MIC90 (Staphylococcus aureus): > 30 µg/mL; MIC50 (Escherichia coli): > 30 µg/mL; MIC90 (Escherichia coli): > 30 µg/mL; inhibition at 48 h, 3 ug/ml [18]: -0.3%; inhibition at 48 h, 10 ug/ml [19]: -15.2%; inhibition of growth at 3 µg/mL [20]: 15.6%; inhibition at 48 h, 30 ug/ml [21]: -20.1%; inhibition at 48 h, 3 ug/ml [22]: -14.6%
Cc1ccc2cc(/C=C3\CN(C)C/C(=C\c4cc5ccc(C)cc5nc4Cl)C3=O)c(Cl)nc2c1	8.23 (≈ 16.9 µM)	> 100	> 100	> 100	> 100	> 100		7.7 (≈ 15.8 µM)	20 (≈ 40.9 µM)						98.6	46.1	> 30	> 30	81.7	34.6	inhibition at 48 h, 30 ug/ml [15]: 63.7%; MIC50 (Bacillus subtilis): > 30 µg/mL; MIC90 (Bacillus subtilis): > 30 µg/mL; inhibition at 48 h, 10 ug/ml [16]: 52%; inhibition at 48 h, 30 ug/ml [17]: 45.7%; MIC50 (Staphylococcus aureus): > 30 µg/mL; MIC90 (Staphylococcus aureus): > 30 µg/mL; MIC50 (Escherichia coli): > 30 µg/mL; MIC90 (Escherichia coli): > 30 µg/mL; inhibition at 48 h, 3 ug/ml [18]: 12.9%; inhibition at 48 h, 10 ug/ml [19]: 13.7%; inhibition of growth at 3 µg/mL [20]: -17.1%; inhibition at 48 h, 30 ug/ml [21]: 27.4%; inhibition at 48 h, 3 ug/ml [22]: 30.2%
